Source: patent US4043759A (priority 1976, dated 1977)

Test: Methotrexate concentration in patient serum as function of time after injection, by the radioassay
Assay type: in vivo
Protocol: The preparation of patient samples, such as patient serum and spinal fluid, is as follows:
1. Take 0.3 ml of fluid to be tested and add to 2.7 ml Buffer B to provide a 1:10 dilution.
2. Take 0.3 ml of 1:10 dilution and add to 2.7 ml of Buffer B to provide a 1:100 dilution.
3. Take 0.3 ml of 1:100 dilution and add to 2.7 ml Buffer B to provide a 1:1000 dilution.
4. Take 0.3 ml of 1:1000 dilution and add to 2.7 ml Buffer B to provide 1:10,000 dilution.
6. Centrifuge for 1 or 2 minutes at 2500 × g.
7. Decant supernate liquid into clean tubes.

SMILES: CN(Cc1cnc2nc(N)nc(N)c2n1)c1ccc(C(=O)N[C@@H](CCC(=O)O)C(=O)O)cc1 [Methotrexate]
- Concentration of Methotrexate (after infusion): 66000 ng/mL
- concentration at 24 h (human, 24 hours after injection): 7200 ng/mL
- concentration at 48 h (human, 48 hours after injection): 420 ng/mL
- concentration at 63 h (human, 63 hours after injection): 290 ng/mL
- concentration at 72 h (human, 72 hours after injection): 200 ng/mL
